Assay results taken from patent US8802826B2, “Anti-clusterin antibodies and antigen binding fragments and their use to reduce tumor volume” (Alethia Biotherapeutics Inc., priority 2009, dated 2014).

Assays:
[1] = test system: EMT6 cells; assay: wound healing (scratch) migration assay; type: cell-based, mouse; settings: for activity in the scratch assay relative to the other antibodies: comparison between 16B5 configurations
Description: FIG. 4. h16B5 blocks the migration of cancer cell lines.
To test the activity of anti-clusterin antibodies against cancer cell migration, a standard wound healing, or scratch assay, was used. In this assay, EMT6 cells, a mouse mammary carcinoma cell line, was plated at high density and subjected to wounding by the creation of a scratch in the cell layer. At time 0, a wide denuded area is evident that quickly fills up after incubation of the cells at 37 C for 15 h (see upper left-hand panels in FIG. 4).

[2] = test system: PC3 tumor cell line; assay: invasive growth in Matrigel, PC3; type: cell-based, human; settings: 8 μg/mL, up to 3 weeks
Description: (§1) FIG. 5. Inhibition of h16B5 reduces the invasiveness of human prostate cancer cells. The bottom of 12-well plates was covered with 200 μL Growth factor reduced matrigel (Becton Dickinson). Cells (2.5×10^4) were resuspended in 200 μL matrigel, which was layered on top of this, and finally 500 μL of cell specific growth medium was added on top of the matrigel. h16B5 was added to every layer of matrigel as well as the medium in a concentration of 8 μg/mL. Plates were incubated at 37° C. for up to 3 weeks during which the growth medium (+/−h16B5) was replenished weekly. The arrows indicate the areas of epithelial-like cells.
(§2) We then determined whether other cell lines such as the human prostate PC3 and DU145 cell lines, which secrete various levels of endogenous clusterin, could be affected in their invasive behavior and growth by the h16B5.

[3] = test system: DU145 cells; assay: growth in Matrigel, DU145; type: cell-based, human; settings: 8 μg/mL, up to 3 weeks
Description: as §1, §2

[4] = test system: PANC-1 cells; assay: Transwell Matrigel migration of TGFβ-stimulated pancreatic cancer cells; type: cell-based, human; settings: 24 h incubation
Description: FIG. 12. H16B5 inhibits the migration of pancreatic cancer cell lines. PANC-1 cells were seeded in serum-free medium in the upper chamber of a 24-well Transwell plate containing a Matrigel barrier. The lower wells were filled with medium containing 10% FBS as a chemo-attractant. After a 24 h incubation in the presence or absence of TGFβ and/or h16B5 (as indicated), the number of cells in the Matrigel layer were stained and counted.
(§3) Tumors derived from 4 different human pancreatic cell lines were obtained which were fixed in formalin, embedded in paraffin, and section on glass slides. Immunohistochemistry was conducted with h16B5 antibody to determine if tumors derived from this cancer indication expressed clusterin. The tumors were derived from Aspc-1, BxPC-3, PANC-1, and MiaPaCa-2 all of which were derived from pancreatic cancer patients (ATCC, Manassas, Va.). Paraffin-embedded epithelial pancreatic tumor samples were placed on glass slides and fixed for 15 min at 50° C. Deparaffinization was conducted by treating 2× with xylene followed by dehydration in successive 5 min washes in 100%, 80%, and 70% ethanol. The slides were washed 2× in PBS for 5 min and treated with antigen retrieval solution (citrate-EDTA) to unmask the antigen. […] H16B5-reactive clusterin was detected by incubating with biotin-conjugated human anti-kappa followed by streptavidin-HRP tertiary antibody. […]

[5] = test system: BRI-JM01 mouse mammary carcinoma cells; assay: internalization of fluorescently labelled secreted clusterin; type: cell-based; settings: h16B5 10 μg/ml, labelled clusterin 250 ng/ml
Description: FIG. 13. Secreted clusterin is internalized in cancer cells. Recombinant human clusteirn was expressed in 293-6E cells, purified, and labelled with Alexa Fluor 488 using a commercial labelling kit (Invitrogen). BRI-JM01 mouse mammary carcinoma cells were seeded on coverslips and treated with 250 ng/ml of labelled secreted clusterin. At the indicated times, the cells were washed with ice-cold PBS and fixed in 2% paraformaledyhyde. The slides were mounted with Antifade Gold and images were generated with a fluorescence microscope.
FIG. 14. H16B5 inhibits the internalization of secreted clusterin in cancer cells. The experiment was performed as described for FIG. 13. H16B5 was added at 10 μg/ml.
In order to begin to address this question, cell-based experiments were undertaken to determine if secreted clusterin interacted with cancer cells directly or via other secreted factors in the cell medium. In order to measure this, secreted clusterin was fluorescently labelled and incubated with BRI-JM01 mouse mammary carcinoma cells. […] As shown, the internalization increases over time in manner that is consistent with a receptor-mediated endocytic pathway. Furthermore, the punctate and perinuclear pattern of staining that results after 24 hours (see white arrows in FIG. 13) that is often observed in proteins that are internalized along the endosomal pathway. […]

[6] = target: T1, murine clusterin (Mus musculus, UniProt Q06890); assay: immunohistochemistry on frozen sections of 4T1 mouse mammary tumors; type: binding; settings: 5 μg/ml, 1 h
T1 construct: murine clusterin that was expressed in BR1-JM01 cells; endogenous in cells; host or cells: BR1-JM01 mouse mammary carcinoma cells
T1 sequence (Q06890 22-448): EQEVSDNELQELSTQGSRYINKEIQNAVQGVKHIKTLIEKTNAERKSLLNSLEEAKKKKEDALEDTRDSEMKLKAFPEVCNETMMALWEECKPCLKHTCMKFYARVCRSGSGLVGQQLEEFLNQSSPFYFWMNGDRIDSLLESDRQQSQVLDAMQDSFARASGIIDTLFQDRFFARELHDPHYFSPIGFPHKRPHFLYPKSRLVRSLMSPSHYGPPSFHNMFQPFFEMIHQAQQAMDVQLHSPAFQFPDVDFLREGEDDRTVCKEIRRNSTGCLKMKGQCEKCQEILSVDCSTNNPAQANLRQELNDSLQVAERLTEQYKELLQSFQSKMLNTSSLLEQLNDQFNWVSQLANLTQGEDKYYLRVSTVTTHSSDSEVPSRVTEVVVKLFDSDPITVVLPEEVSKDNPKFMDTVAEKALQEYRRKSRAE
Description: FIG. 16. […] The experiment was performed using immunohistochemistry and detection was accomplished using a HRP-conjugated secondary antibody.
Briefly, the frozen sections were fixed with ice-cold acetone for 10 minutes and non-specific binding was blocked with a reagent supplied in a commercially available kit (Dako Canada, Inc., Burlington, ON). H16B5 was incubated with the mouse tumor section for 1 h at a concentration of 5 μg/ml. […] A control sample was processed in an identical manner with a human isotype control IgG.

[7] = target: T1, murine clusterin; assay: immunofluorescence on BR1-JM01 cells; type: binding
[8] = target: T2, clusterin (Homo sapiens, UniProt P10909); assay: immunohistochemistry on tumors derived from human pancreatic cancer cell lines; type: binding; settings: 5 μg/ml, 1 h at room temperature
T2 construct: from tissue; host or cells: formalin-fixed, paraffin-embedded xenograft tumours of Aspc-1, BxPC-3, PANC-1 and MiaPaCa-2 cells grown in SCID mice
T2 sequence (P10909 23-449): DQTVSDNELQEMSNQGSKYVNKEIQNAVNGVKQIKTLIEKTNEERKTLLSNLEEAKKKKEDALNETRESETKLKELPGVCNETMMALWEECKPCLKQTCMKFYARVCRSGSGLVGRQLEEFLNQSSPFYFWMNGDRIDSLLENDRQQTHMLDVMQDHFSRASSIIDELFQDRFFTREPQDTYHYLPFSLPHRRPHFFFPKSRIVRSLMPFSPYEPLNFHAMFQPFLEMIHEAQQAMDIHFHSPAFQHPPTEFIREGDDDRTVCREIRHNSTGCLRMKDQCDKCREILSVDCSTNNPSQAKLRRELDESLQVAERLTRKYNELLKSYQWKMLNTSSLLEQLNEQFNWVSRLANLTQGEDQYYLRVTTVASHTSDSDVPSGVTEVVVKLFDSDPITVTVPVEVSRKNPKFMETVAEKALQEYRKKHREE
Description: FIG. 11. Clusterin is expressed in human pancreatic tumors. Tumors derived from pancreatic cancer cell lines (as indicated) were grown in SCID mice, harvested, fixed in formalin, sections and examined using immunohistochemistry with h16B5. Positive staining was visualized by standard methods using a HRP-conjugated secondary antibody. The negative control was performed under identical conditions with an isotype control antibody.
as §3

Substance: h16B5: humanized anti-clusterin IgG2 antibody, heavy chain SEQ ID NO.:9 and light chain SEQ ID NO.:10
- migration of cells into the denuded area ([1]; 37 C for 15 h): blockage of migration
- activity in the scratch assay relative to the other antibodies [1]: at least as active as the mouse 16B6
- activity in the scratch assay relative to the other antibodies ([1]; listed as humanized 16B5): most effective inhibitor
- stellate morphology in Matrigel (invasive phenotype) [2]: significantly reduced
- sphere-like structures in Matrigel [3]: smaller and fewer in number
- migration of TGFβ-stimulated cells into the Matrigel [4]: severely inhibited
- internalization of secreted clusterin into JM01 cells [5]: blocked
- detection of murine clusterin in 4T1 tumors [6]: detected murine clusterin
- detection of murine clusterin expressed in BR1-JM01 cells [7]: detected murine clusterin
- staining for clusterin expression in Aspc-1, BxPC-3, PANC-1 and MiaPaCa-2 derived tumors [8]: stained positive
